# Values joined by “and” are separate entries in the source; they are usually repeats but may differ in a detail not shown here. Equal values may be shown once. Where a SMILES comes first, the peptide text is derived from it. [ ]: non-standard residue; d: D form. The star is where a group is joined. dPhe(3,4-Cl2) = N[C@H](Cc1ccc(Cl)c(Cl)c1)C(=O)O; d2Nal = N[C@H](Cc1ccc2ccccc2c1)C(=O)O; NH(thiazol-2-yl) = c1csc(N*)n1; d2Thi = N[C@H](Cc1cccs1)C(=O)O; NH(4-picolyl) = c1cc(CN*)ccn1; N(CH2CH2)2NH = C1CN(*)CCN1; dNle = CCCC[C@@H](N)C(=O)O; Morpholide = C1CN(*)CCO1; NHBn = c1ccc(CN*)cc1; NEt2 = CCN(CC)*; NHcPr = C1CC1N*; NHPr = CCCN*
# Assays:
# [1] = biological target: T1, cloned human kappa (hKOR) receptor (Homo sapiens, UniProt P41145); test: biochemical; type: binding; conditions: for μ/κ Ratio (binding affinity for KOR versus MOR): Ki MOR / Ki KOR; for Ki: read-out: Ki KOR
# T1 construct: expressed in transfected cells; host or cells: HN9.10 (mouse hippocampal neuroblastoma), stably transfected
# conscious male ICR mice = test: Mouse acetic acid writhing test (WT); type: in vivo; conditions: for WT-ED50: i.v., 5 minutes before acetic acid i.p., writhes over 15 minutes; for % Antinociception 1 hr: 60 min pretreatment; for % Antinociception 2 hr: 120 min pretreatment
# Description: Selected peptides that are identified in Tables A-G have been further specifically subjected to in vivo testing for determination of duration of action of their opioid properties, and the results are reported in Table H hereinafter. The peptide numbers correspond to those in the earlier tables and the figures with regard to μ/K ratio are simply carried over for reference purposes. The in vivo testing is carried out using a mouse writhing test (WT) that is well-suited for determining the length of duration of antinociceptive biological activity. This test is described in detail in an article by G. A. Bentley et al., Br. J. Phamac., 73:325-332, 1981, and it employs conscious male ICR mice which are purchased from Harlan and which weigh between 20 and 30 grams. The mice are fasted for 12 to 16 hours prior to beginning the test. The nociceptive behavior, i.e. writhing, to be monitored is induced by the intraperitoneal (i.p.) administration of dilute acetic acid. 10 milliliters of 0.6% aqueous acetic acid is used per kg of body weight. Writhing is scored during the 15 minutes following acetic acid administration. In a first step, compounds are tested at 3 to 4 increasing doses, given by intravenous route, and at one unique pretreatment time (-5 minutes before acetic acid injection). […] In a second step, this submaximal effective dose for each specific peptide is administered at various pretreatment times (i.e. -5 minutes, -60 minutes, -120 minutes and -180 minutes) prior to the administration of the acetic acid in order to determine the duration of action. Throughout the test, a control group of mice are used which are administered only the vehicle without the candidate peptide. The number of writhes are counted over a 15-minute period, starting from the time of acetic acid injection, and bioactivity, i.e. antinociception, is expressed as a percentage, and is calculated as follows:
# 100×(writhes in control group-writhes in treated group)/writhes in
# Values higher than 100% indicate greater antinociception than at the beginning of the experiment. It is felt that the opioid peptide should be effective to reduce writhing by at least about 25% at a time of 1 hour to be considered to have long duration of in vivo action.
# In addition to using this test to determine duration of antinociceptive activity, it is also used to measure the in vivo biopotency (short term) of the peptide. This value is given in the table under the heading WT-ED50 in milligrams per kg of body weight. The value is a measure of the dosage necessary to reduce the number of writhes in the mouse being tested by 50% (as compared to a control mouse) over a period of 15 minutes.
# mouse = conditions: for TF-ED50: i.v., 52° C. water, central effects; for BPI (Brain Penetration Index): mouse, in vivo, iv
# [2] = biological target: T2, cloned human mu opioid (hMOR) receptor (Homo sapiens, UniProt P35372); test: Competition binding at cloned hMOR, displacement of 3H-DAMGO; conditions: hMOR stably expressed in HN.9.10 cells, read-out: Ki MOR
# T2 construct: expressed in transfected cells; host or cells: HN9.10 (mouse hippocampal neuroblastoma), stably transfected
# [3] = submaximal effective dose i.v., percentage of the activity found at -5 min
# T2 sequence (P35372 whole entry): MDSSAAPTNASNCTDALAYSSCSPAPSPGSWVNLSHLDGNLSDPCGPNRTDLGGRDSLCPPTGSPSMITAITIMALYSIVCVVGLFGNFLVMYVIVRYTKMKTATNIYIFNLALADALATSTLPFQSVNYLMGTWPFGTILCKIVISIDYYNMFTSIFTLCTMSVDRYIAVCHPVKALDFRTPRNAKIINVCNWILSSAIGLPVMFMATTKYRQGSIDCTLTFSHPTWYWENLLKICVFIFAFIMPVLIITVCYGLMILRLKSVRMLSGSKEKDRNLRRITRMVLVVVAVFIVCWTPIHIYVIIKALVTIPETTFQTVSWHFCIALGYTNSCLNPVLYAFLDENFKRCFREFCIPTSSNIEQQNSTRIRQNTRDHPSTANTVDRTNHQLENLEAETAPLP
# T1 sequence (P41145 whole entry): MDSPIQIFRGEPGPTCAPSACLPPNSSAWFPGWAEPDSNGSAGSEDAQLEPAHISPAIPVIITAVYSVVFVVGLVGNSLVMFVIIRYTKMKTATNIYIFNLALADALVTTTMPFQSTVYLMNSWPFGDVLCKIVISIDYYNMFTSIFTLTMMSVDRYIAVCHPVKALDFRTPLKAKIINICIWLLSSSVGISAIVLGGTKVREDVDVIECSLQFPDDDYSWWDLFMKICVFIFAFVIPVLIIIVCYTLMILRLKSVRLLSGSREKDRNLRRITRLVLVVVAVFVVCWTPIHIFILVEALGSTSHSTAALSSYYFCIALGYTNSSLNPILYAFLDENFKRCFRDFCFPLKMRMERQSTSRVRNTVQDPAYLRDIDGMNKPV
Structure (SMILES),μ/κ Ratio (binding affinity for KOR versus MOR) [1],μ/κ Ratio (binding affinity for KOR versus MOR) ([1]; listed as Peptide No. 1),Ki [1] [nM],WT-ED50 (conscious male ICR mice),WT-ED50 (conscious male ICR mice; listed as Peptide No. 1),"antinociception after 3 hours (conscious male ICR mice; mouse acetic acid writhing assay, Example 1)",duration of antinociceptive bioactivity (duration of action) (conscious male ICR mice; result in words),% Antinociception 1 hr (conscious male ICR mice; [3]) [%],% Antinociception 2 hr (conscious male ICR mice; [3]) [%],"% Antinociception 3 hr (conscious male ICR mice; submaximal effective dose i.v., 180 min pretreatment, percentage of the activity found at -5 min) [%]",TF-ED50 (mouse) [mg/kg],BPI (Brain Penetration Index) (mouse),Ki [2] [nM]
"CCCC[C@@H](NC(=O)[C@@H](Cc1ccccc1)NC(=O)[C@H](N)Cc1ccccc1)C(=O)N[C@H](CCCNC(=N)N)C(=O)NCC [Peptide 1, H-D-Phe-D-Phe-D-Nle-D-Arg-NHEt] (H-[dF][dF][dNle][dR]-NHEt)","38,000","about 38,000",~0.05,0.09 mg/kg,about 0.09 mg/kg,over 50%,very long duration of action,83.9,75.5,61.3,9.7,108,1890 ± 990
"CCCC[C@@H](NC(=O)[C@@H](Cc1ccccc1)NC(=O)[C@H](N)Cc1ccccc1)C(=O)N[C@H](CCCNC(=N)N)C(=O)NCCC [Peptide 3, H-D-Phe-D-Phe-D-Nle-D-Arg-NHPr] (H-[dF][dF][dNle][dR]-NHPr)","18,000",,0.09,0.078 mg/kg,,,,29,30.7,,13.82,177,1640
"CCCC[C@@H](NC(=O)[C@@H](Cc1ccccc1)NC(=O)[C@H](N)Cc1ccccc1)C(=O)N[C@H](CCCNC(=N)N)C(=O)NC1CC1 [Peptide 5, H-D-Phe-D-Phe-D-Nle-D-Arg-NH(Cyp)] (H-[dF][dF][dNle][dR]-NHcPr)","20,000",,0.18,0.04 mg/kg,,,,66,34.5,,4.4,110,3520
"CCCC[C@@H](NC(=O)[C@@H](Cc1ccccc1)NC(=O)[C@H](N)Cc1ccccc1)C(=O)N[C@H](CCCNC(=N)N)C(=O)N1CCOCC1 [Peptide 6, H-D-Phe-D-Phe-D-Nle-D-Arg-Mor] (H-[dF][dF][dNle][dR]-Morpholide)","42,000",,0.06,0.014 mg/kg,,,,105.7,52.7,,6.4,457,2510
"CCCC[C@@H](NC(=O)[C@@H](Cc1ccccc1)NC(=O)[C@H](N)Cc1ccccc1)C(=O)N[C@H](CCCNC(=N)N)C(=O)N(CC)CC [Peptide 7, H-D-Phe-D-Phe-D-Nle-D-Arg-N(Et2)] (H-[dF][dF][dNle][dR]-NEt2)","17,000",,0.11,0.02 mg/kg and 0.020 mg/kg,,,,67.5,36.8,,3.1,155,1900
"CCCC[C@@H](NC(=O)[C@@H](Cc1ccccc1)NC(=O)[C@H](N)Cc1ccccc1)C(=O)N[C@H](CCCNC(=N)N)C(=O)NCc1ccncc1 [Peptide 8, H-D-Phe-D-Phe-D-Nle-D-Arg-NH(4-Pic)] (H-[dF][dF][dNle][dR]-{NH(4-picolyl)})","26,000",,0.14,0.01 mg/kg,,,,66.9,45.1,,9.84,984,3640
"CCCC[C@@H](NC(=O)[C@@H](Cc1ccccc1)NC(=O)[C@H](N)Cc1ccccc1)C(=O)N[C@H](CCCNC(=N)N)C(=O)Nc1nccs1 [Peptide 13, H-D-Phe-D-Phe-D-Nle-D-Arg-NH(2-Tzl)] (H-[dF][dF][dNle][dR]-{NH(thiazol-2-yl)})","2,700",,0.59,0.44 mg/kg,,,,30.7,,,,,1590
"CCCC[C@@H](NC(=O)[C@@H](Cc1ccccc1)NC(=O)[C@H](N)Cc1ccccc1)C(=O)N[C@H](CCCNC(=N)N)C(=O)NCc1ccccc1 [Peptide 14, H-D-Phe-D-Phe-D-Nle-D-Arg-NHBzl] (H-[dF][dF][dNle][dR]-NHBn)","2,000",,0.44,0.14 mg/kg,,,,36,,,,,890
"CCCC[C@@H](NC(=O)[C@@H](Cc1ccccc1)NC(=O)[C@H](N)Cc1ccccc1)C(=O)N[C@H](CCCNC(=N)N)C(=O)N1CCNCC1 [Peptide 15, H-D-Phe-D-Phe-D-Nle-D-Arg-Ppz] (H-[dF][dF][dNle][dR]-{N(CH2CH2)2NH})","57,000",,0.16,0.017 mg/kg,,,,,,,,,9100
"CCNC(=O)[C@@H](CCCN)NC(=O)[C@@H](CC(C)C)NC(=O)[C@@H](Cc1ccccc1)NC(=O)[C@H](N)Cc1ccccc1 [Peptide 56, H-D-Phe-D-Phe-D-Leu-D-Orn-NHEt]","13,000",,0.31,0.057 mg/kg and 0.06 mg/kg,,,,76.3,60.2,,,,4150
"CCCC[C@@H](NC(=O)[C@@H](Cc1ccccc1)NC(=O)[C@H](N)Cc1ccccc1)C(=O)N[C@H](Cc1ccc(CNC(=N)N)cc1)C(=O)N1CCOCC1 [Peptide 58, H-D-Phe-D-Phe-D-Nle-D-Gmf-Mor]","6,500",,0.46,0.040 mg/kg,,,,,,,,,3010
"CC(C)C[C@@H](NC(=O)[C@@H](Cc1ccc(Cl)c(Cl)c1)NC(=O)[C@H](N)Cc1cccs1)C(=O)N[C@H](CCCNC(=N)N)C(=O)NCc1ccncc1 [Peptide 60, H-D-Ala(2Thi)-D-3,4Cpa-D-Leu-D-Arg-NH(4Pic)] (H-[d2Thi][dPhe(3,4-Cl2)][dL][dR]-{NH(4-picolyl)})","1,900",,0.4,0.083 mg/kg,,,,83.8,35.5,,,,769
"CC(C)C[C@@H](NC(=O)[C@@H](Cc1ccc2ccccc2c1)NC(=O)[C@H](N)Cc1cccs1)C(=O)N[C@H](CCCNC(=N)N)C(=O)N1CCOCC1 [Peptide 63, H-D-Ala(2Thi)-D-2Nal-D-Leu-D-Arg-Mor] (H-[d2Thi][d2Nal][dL][dR]-Morpholide)","16,000",,0.2,0.04 mg/kg,,,,51.8,36.1,,,,3170
